Experiments:
[1] = test system: macrophage (J774A.1.) cells; details: 100 μM HOCl, 400 μM SCN, 15 minutes, viability after 6 hrs
Description: Cells were exposed to 100 μM HOCl and/or 400 μM ^−SCN in PBS for 15 minutes, washed and then placed in fresh media for 6 hrs before viability assessment with flow cytometry (FIG. 7A).

[2] = test system: Human peripheral blood neutrophils activated with PMA; details: 20 ng/ml PMA, 200 μM thiocyanate
Description: Cytotoxicity was assessed by measuring lactate dehydrogenase (LDH) release.

[3] = test system: clinical isolate of M. abscessus; test: NTM killing, exposure to GOX, LPO, SeCN components; type: cell-based; details: plated on LB agar immediately after mixing
Description: FIGS. 24A and 24B show —SeCN-mediated killing of NTM requires LPO, but not GOX, while LPO/—SeCn has no effect upon B. Cepacia. […] All conditions with GOX also contained dextrose, the required substrate of GOX for H2O2 production.
Susceptibility of NTM species to both HOSCN- and HOSeCN-mediated killing. […] Given the shorter amount of time necessary for —SeCN-mediated killing of NTM compared to other bacteria species (FIGS. 24A and 24B), the possibility that the mechanism responsible for —SeCN-mediated killing of NTM was unique compared to —SCN-mediated killing of NTM and —SeCN-mediated killing of other species is determined. […] Since killing required LPO, the inventors believe that endogenous H2O2 production by NTM provided the H2O2 required for the generation of HOSeCN via LPO and —SeCN.

[4] = test system: Pseudomonas aeruginosa (PA) lung infection
Description: FIGS. 8A-8C. […] Wild type (WT) and beta-subunit of the epithelial Na(+) channel (βENaC) Tg Mice were nebulized with 0.5% ^−SCN twice-daily starting 24 hrs post infection. Mice were sacrificed 72 hrs post infection and lung burden of PA was assessed (FIG. 8A), BAL neutrophil counts (FIG. 8B), and BALF KC cytokine (IL-8 analog) levels determined (FIG. 8C).
The inventors have shown critical in vivo proof of principle with inhaled ^−SCN in PA-infected mice (Chandler, J. D., et al. (2015); Chandler, J. D., et al. (2013) Nebulized thiocyanate improves lung infection outcomes in mice. Br J Pharmacol 169, 1166-1177). […] Mice that overexpress a sodium channel, βENaC, have been developed that spontaneously develop lung inflammation and mucous obstructions similar to that reported in subjects with CF (Mall, M., et al. (2004) Increased airway epithelial Na+ absorption produces cystic fibrosis-like lung disease in mice. Nat Med 10, 487-493). This model is useful to differentiate the antimicrobial effect of an agent from its potential anti-inflammatory effects.

[5] = aerosolized isotonic 0.5% (w/v) solution in PBS for 30 minutes
Description: Mice (C57B6) were exposed to an aerosolized isotonic 0.5% (w/v) ^−SCN solution in PBS for 30 minutes (0 hr) and ^−SCN levels in the ELF and serum were determined by HPLC-EC at various time points.

[6] = nebulized 0.5%, twice daily, started 1 day after infection, 72 hours

N#CS [SCN, thiocyanate]
Protection from HOCl-mediated necrosis [1]: protects macrophage (J774A.1.) cells from HOCl-mediated necrosis
Cytoprotection in activated neutrophils [2]: cytoprotective
Killing of NTM with LPO, without GOX [3]: did not kill NTM
BAL neutrophil cell counts ([4]; mouse, in vivo): decreased
Lung CFU PA burden ([4]; mouse, in vivo): lower lung CFU PA burden
BAL levels of KC (IL-8 analog) [4, 6]: decreased
Body weight loss [4, 6]: less body weight loss
Lung pyocyanin levels [4, 6]: decreased lung pyocyanin levels
ELF SCN levels [5]: high ELF ^−SCN levels
Tolerability of inhaled SCN [5]: well tolerated

— patent US11986450B2, “Methods and compositions for treating infection and inflammation with selenocyanate” (National Jewish Health, priority 2017, dated 2024)
